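Interpolation was linear, between the two tested concentrations surrounding the appropriate level; five concentrations were tested over 48 hours in 96-well plates. GI50: concentration for 50% inhibition of growth. TGI: concentration producing complete growth inhibition.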
Assays:
Test in all cases: NCI anticancer screen, dose series, 48 h
786-0 renal = test system: 786-0 renal
A498 renal = test system: A498 renal
A549 NSCLC = test system: A549 NSCLC
ACHN renal = test system: ACHN renal
BT-549 breast = test system: BT-549 breast
CAKI-1 renal = test system: CAKI-1 renal
CCRF-CEM leukemia = test system: CCRF-CEM leukemia
COLO 205 colon = test system: COLO 205 colon
DU-145 prostate = test system: DU-145 prostate
EKVX NSCLC = test system: EKVX NSCLC
HCC-2998 colon = test system: HCC-2998 colon
HCT-116 colon = test system: HCT-116 colon
HCT-15 colon = test system: HCT-15 colon
HL-60(TB) leukemia = test system: HL-60(TB) leukemia
HOP-62 NSCLC = test system: HOP-62 NSCLC
HOP-92 NSCLC = test system: HOP-92 NSCLC
HS 578T breast = test system: HS 578T breast
HT29 colon = test system: HT29 colon
IGROV1 ovarian = test system: IGROV1 ovarian
K-562 leukemia = test system: K-562 leukemia
KM12 colon = test system: KM12 colon
LOX IMVI melanoma = test system: LOX IMVI melanoma
M14 melanoma = test system: M14 melanoma
MCF7 breast = test system: MCF7 breast
MDA-MB-231 breast = test system: MDA-MB-231 breast
MDA-MB-435 = test system: MDA-MB-435
MOLT-4 leukemia = test system: MOLT-4 leukemia
NCI-H226 lung = test system: NCI-H226 lung
NCI-H23 lung = test system: NCI-H23 lung
NCI-H460 lung = test system: NCI-H460 lung
NCI-H522 lung = test system: NCI-H522 lung
NCI/ADR-RES ovarian = test system: NCI/ADR-RES ovarian
OVCAR-3 ovarian = test system: OVCAR-3 ovarian
OVCAR-4 ovarian = test system: OVCAR-4 ovarian
OVCAR-5 ovarian = test system: OVCAR-5 ovarian
OVCAR-8 ovarian = test system: OVCAR-8 ovarian
PC-3 prostate = test system: PC-3 prostate
RPMI-8226 leukemia = test system: RPMI-8226 leukemia
SF-268 CNS = test system: SF-268 CNS
SF-295 CNS = test system: SF-295 CNS
SF-539 CNS = test system: SF-539 CNS
SK-MEL-2 melanoma = test system: SK-MEL-2 melanoma
SK-MEL-28 melanoma = test system: SK-MEL-28 melanoma
SK-MEL-5 melanoma = test system: SK-MEL-5 melanoma
SK-OV-3 ovarian = test system: SK-OV-3 ovarian
SN12C renal = test system: SN12C renal
SNB-19 CNS = test system: SNB-19 CNS
SNB-75 CNS = test system: SNB-75 CNS
SR leukemia = test system: SR leukemia
SW-620 colon = test system: SW-620 colon
T-47D breast = test system: T-47D breast
TK-10 renal = test system: TK-10 renal
U251 CNS = test system: U251 CNS
UACC-257 melanoma = test system: UACC-257 melanoma
UACC-62 melanoma = test system: UACC-62 melanoma
UO-31 renal = test system: UO-31 renal

CCN1C(=O)N(CC)C2SC(N/N=C/c3ccccc3F)=NC21 (configuration not stated)
GI50 (786-0 renal): 657 nM
TGI (786-0 renal): > 86100 nM
GI50 (A498 renal): 204 nM
TGI (A498 renal): 836 nM
GI50 (A549 NSCLC): 526 nM
TGI (A549 NSCLC): > 100000 nM
GI50 (ACHN renal): 864 nM
TGI (ACHN renal): > 100000 nM
GI50 (BT-549 breast): 298 nM
TGI (BT-549 breast): 1590 nM
GI50 (CAKI-1 renal): 353 nM
TGI (CAKI-1 renal): > 100000 nM
GI50 (CCRF-CEM leukemia): 364 nM
TGI (CCRF-CEM leukemia): > 100000 nM
GI50 (COLO 205 colon): 298 nM
TGI (COLO 205 colon): 1480 nM
GI50 (DU-145 prostate): 462 nM
TGI (DU-145 prostate): > 100000 nM
GI50 (EKVX NSCLC): 570 nM
TGI (EKVX NSCLC): > 100000 nM
GI50 (HCC-2998 colon): 414 nM
TGI (HCC-2998 colon): 27000 nM
GI50 (HCT-116 colon): 369 nM
TGI (HCT-116 colon): > 100000 nM
GI50 (HCT-15 colon): 344 nM
TGI (HCT-15 colon): > 100000 nM
GI50 (HL-60(TB) leukemia): 199 nM
TGI (HL-60(TB) leukemia): 633 nM
GI50 (HOP-62 NSCLC): 474 nM
TGI (HOP-62 NSCLC): > 100000 nM
GI50 (HOP-92 NSCLC): 1280 nM
TGI (HOP-92 NSCLC): > 25800 nM
GI50 (HS 578T breast): 299 nM
TGI (HS 578T breast): > 100000 nM
GI50 (HT29 colon): 323 nM
TGI (HT29 colon): > 100000 nM
GI50 (IGROV1 ovarian): 599 nM
TGI (IGROV1 ovarian): > 100000 nM
GI50 (K-562 leukemia): 194 nM
TGI (K-562 leukemia): > 100000 nM
GI50 (KM12 colon): 383 nM
TGI (KM12 colon): > 54800 nM
GI50 (LOX IMVI melanoma): 556 nM
TGI (LOX IMVI melanoma): > 100000 nM
GI50 (M14 melanoma): 206 nM
TGI (M14 melanoma): 610 nM
GI50 (MCF7 breast): 267 nM
TGI (MCF7 breast): > 100000 nM
GI50 (MDA-MB-231 breast): 635 nM
TGI (MDA-MB-231 breast): > 100000 nM
GI50 (MDA-MB-435): 75.1 nM
TGI (MDA-MB-435): 274 nM
GI50 (MOLT-4 leukemia): 507 nM
TGI (MOLT-4 leukemia): > 100000 nM
GI50 (NCI-H226 lung): 1960 nM
TGI (NCI-H226 lung): > 100000 nM
GI50 (NCI-H23 lung): 467 nM
TGI (NCI-H23 lung): > 100000 nM
GI50 (NCI-H460 lung): 353 nM
TGI (NCI-H460 lung): > 100000 nM
GI50 (NCI-H522 lung): 172 nM
TGI (NCI-H522 lung): 527 nM
GI50 (NCI/ADR-RES ovarian): 312 nM
TGI (NCI/ADR-RES ovarian): > 65900 nM
GI50 (OVCAR-3 ovarian): 330 nM
TGI (OVCAR-3 ovarian): > 100000 nM
GI50 (OVCAR-4 ovarian): > 58300 nM
TGI (OVCAR-4 ovarian): > 100000 nM
GI50 (OVCAR-5 ovarian): 517 nM
TGI (OVCAR-5 ovarian): > 100000 nM
GI50 (OVCAR-8 ovarian): 425 nM
GI50 (PC-3 prostate): 347 nM
TGI (PC-3 prostate): > 100000 nM
GI50 (RPMI-8226 leukemia): 355 nM
TGI (RPMI-8226 leukemia): > 100000 nM
GI50 (SF-268 CNS): 4170 nM
TGI (SF-268 CNS): > 100000 nM
GI50 (SF-295 CNS): 293 nM
TGI (SF-295 CNS): > 100000 nM
GI50 (SF-539 CNS): 238 nM
TGI (SF-539 CNS): 772 nM
GI50 (SK-MEL-2 melanoma): 326 nM
TGI (SK-MEL-2 melanoma): > 100000 nM
GI50 (SK-MEL-28 melanoma): 5620 nM
TGI (SK-MEL-28 melanoma): > 100000 nM
GI50 (SK-MEL-5 melanoma): 603 nM
TGI (SK-MEL-5 melanoma): 20700 nM
GI50 (SK-OV-3 ovarian): 569 nM
TGI (SK-OV-3 ovarian): > 100000 nM
GI50 (SN12C renal): 567 nM
TGI (SN12C renal): > 100000 nM
GI50 (SNB-19 CNS): 430 nM
TGI (SNB-19 CNS): > 100000 nM
GI50 (SNB-75 CNS): 207 nM
TGI (SNB-75 CNS): > 73000 nM
GI50 (SR leukemia): 165 nM
TGI (SR leukemia): > 100000 nM
GI50 (SW-620 colon): 372 nM
TGI (SW-620 colon): > 100000 nM
GI50 (T-47D breast): 557 nM
TGI (T-47D breast): > 100000 nM
TGI (TK-10 renal): > 100000 nM
GI50 (U251 CNS): 342 nM
TGI (U251 CNS): > 39200 nM
GI50 (UACC-257 melanoma): 2170 nM
TGI (UACC-257 melanoma): > 64400 nM
GI50 (UACC-62 melanoma): 295 nM
TGI (UACC-62 melanoma): > 100000 nM
GI50 (UO-31 renal): 643 nM
TGI (UO-31 renal): > 100000 nM

C=C(C=O)[C@@H]1CC[C@]2(COC(C)=O)CC[C@]3(C)C(CC[C@@H]4[C@@]5(C)CC[C@H](OC(C)=O)C(C)(C)[C@@H]5CC[C@]43C)[C@@H]12 (some centres not stated)
GI50 (A498 renal): > 100000 nM
TGI (A498 renal): > 100000 nM
GI50 (A549 NSCLC): > 100000 nM
TGI (A549 NSCLC): > 100000 nM
GI50 (HOP-62 NSCLC): > 100000 nM
TGI (HOP-62 NSCLC): > 100000 nM
GI50 (NCI-H460 lung): > 100000 nM
TGI (NCI-H460 lung): > 100000 nM
GI50 (SK-OV-3 ovarian): > 100000 nM
TGI (SK-OV-3 ovarian): > 100000 nM
GI50 (TK-10 renal): > 100000 nM
TGI (TK-10 renal): > 100000 nM

Reference: PubChem BioAssay (NCI)
